US20210070748A1, “INHIBITORS OF BRUTONS TYROSINE KINASE” (Pharmacyclics LLC, priority 2015, published 2021)

Columns and labels:
Type in all cases: biochemical
TXK = target: T1, TXK (Homo sapiens, UniProt P42681); assay: Inhibition of a panel of kinases, in vitro HotSpot kinase assay: TXK; conditions: Table 15, C compounds; 1 μM ATP
T1 sequence (P42681 1-527): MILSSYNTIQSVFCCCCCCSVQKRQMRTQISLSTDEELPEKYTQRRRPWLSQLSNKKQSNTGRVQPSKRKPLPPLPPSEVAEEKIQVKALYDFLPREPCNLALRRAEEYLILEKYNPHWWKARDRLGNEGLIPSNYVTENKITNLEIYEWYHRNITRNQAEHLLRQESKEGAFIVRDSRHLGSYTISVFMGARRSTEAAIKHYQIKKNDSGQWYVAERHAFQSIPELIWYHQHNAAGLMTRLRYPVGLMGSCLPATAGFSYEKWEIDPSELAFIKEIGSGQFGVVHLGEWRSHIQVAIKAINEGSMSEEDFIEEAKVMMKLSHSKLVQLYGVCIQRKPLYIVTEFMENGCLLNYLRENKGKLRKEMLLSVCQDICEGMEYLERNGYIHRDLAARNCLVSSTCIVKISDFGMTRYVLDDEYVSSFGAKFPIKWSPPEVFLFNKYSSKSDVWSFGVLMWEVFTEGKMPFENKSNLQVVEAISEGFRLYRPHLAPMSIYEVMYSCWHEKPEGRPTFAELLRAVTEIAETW
Protocol: (§1) The degree of inhibition of a panel of kinases is determined using the in vitro HotSpot kinase assay (purified enzymes, ^33P-ATP, an appropriate substrate and 1 μM ATP).

ITK = target: T2, ITK (Homo sapiens, UniProt Q08881); assay: Inhibition of a panel of kinases, in vitro HotSpot kinase assay: ITK; conditions: Table 15, C compounds; 1 μM ATP
T2 sequence (Q08881 1-620): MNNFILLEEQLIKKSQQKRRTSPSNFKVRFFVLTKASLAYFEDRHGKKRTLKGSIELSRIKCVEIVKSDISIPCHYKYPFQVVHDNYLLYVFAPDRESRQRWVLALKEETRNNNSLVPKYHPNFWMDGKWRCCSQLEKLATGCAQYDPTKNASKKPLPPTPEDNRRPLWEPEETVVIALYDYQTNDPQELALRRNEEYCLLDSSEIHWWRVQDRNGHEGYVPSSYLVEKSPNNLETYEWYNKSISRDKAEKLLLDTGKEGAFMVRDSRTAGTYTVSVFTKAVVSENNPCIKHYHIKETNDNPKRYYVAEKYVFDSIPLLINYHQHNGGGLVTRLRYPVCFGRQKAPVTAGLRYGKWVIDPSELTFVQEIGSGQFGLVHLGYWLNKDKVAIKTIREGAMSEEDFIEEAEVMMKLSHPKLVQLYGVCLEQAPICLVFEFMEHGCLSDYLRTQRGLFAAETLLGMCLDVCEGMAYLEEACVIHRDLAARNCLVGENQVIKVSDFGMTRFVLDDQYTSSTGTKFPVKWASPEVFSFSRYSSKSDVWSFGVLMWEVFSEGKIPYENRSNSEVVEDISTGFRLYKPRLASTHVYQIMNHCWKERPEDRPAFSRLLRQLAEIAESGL
Protocol: as §1

EGFR = EGFR (Homo sapiens, UniProt P00533); assay: Inhibition of a panel of kinases, in vitro HotSpot kinase assay: EGFR; conditions: Table 15, C compounds; 1 μM ATP
Chain of EGFR (P00533 25-1210): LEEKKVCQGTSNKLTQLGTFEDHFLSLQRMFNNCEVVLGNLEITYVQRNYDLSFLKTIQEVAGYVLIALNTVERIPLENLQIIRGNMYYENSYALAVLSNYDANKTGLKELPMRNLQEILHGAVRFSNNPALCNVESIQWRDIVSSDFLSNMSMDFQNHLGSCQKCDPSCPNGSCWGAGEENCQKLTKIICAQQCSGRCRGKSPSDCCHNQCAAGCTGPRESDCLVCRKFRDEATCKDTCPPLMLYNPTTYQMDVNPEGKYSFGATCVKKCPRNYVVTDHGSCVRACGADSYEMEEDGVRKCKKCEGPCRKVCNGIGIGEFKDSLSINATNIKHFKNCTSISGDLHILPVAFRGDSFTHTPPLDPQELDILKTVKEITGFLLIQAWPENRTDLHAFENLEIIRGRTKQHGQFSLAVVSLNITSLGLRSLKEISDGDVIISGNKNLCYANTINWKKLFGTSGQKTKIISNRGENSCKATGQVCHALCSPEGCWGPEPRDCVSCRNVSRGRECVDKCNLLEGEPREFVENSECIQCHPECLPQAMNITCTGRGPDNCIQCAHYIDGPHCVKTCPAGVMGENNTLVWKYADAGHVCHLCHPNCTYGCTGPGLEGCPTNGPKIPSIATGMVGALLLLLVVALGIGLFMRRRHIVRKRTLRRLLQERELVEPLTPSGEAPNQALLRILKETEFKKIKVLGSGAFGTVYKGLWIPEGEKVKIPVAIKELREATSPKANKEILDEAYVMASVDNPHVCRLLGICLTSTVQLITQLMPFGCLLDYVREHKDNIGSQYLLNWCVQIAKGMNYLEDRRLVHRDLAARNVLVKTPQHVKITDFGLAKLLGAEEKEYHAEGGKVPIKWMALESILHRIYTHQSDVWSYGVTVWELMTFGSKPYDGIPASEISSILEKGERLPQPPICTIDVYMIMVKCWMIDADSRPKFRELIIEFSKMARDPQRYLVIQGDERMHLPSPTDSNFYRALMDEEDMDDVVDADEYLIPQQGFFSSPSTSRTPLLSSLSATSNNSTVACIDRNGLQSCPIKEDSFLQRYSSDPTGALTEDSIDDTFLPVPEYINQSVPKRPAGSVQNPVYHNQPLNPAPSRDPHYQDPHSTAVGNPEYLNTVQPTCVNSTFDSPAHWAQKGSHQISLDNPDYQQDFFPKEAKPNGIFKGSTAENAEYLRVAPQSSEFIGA
Protocol: as §1

BTK-WT = target: T3, BTK-WT (Homo sapiens, UniProt Q06187); assay: Btk in vitro inhibitory activity (one of Method A TR-FRET, Method B electrophoretic mobility shift, Method C radiometric filter binding); conditions: Table 15, C compounds; read-out: IC50 BTK-WT
T3 construct: purified from insect cells as a full-length construct containing an N-terminal 6X-His tag; His6 (N); made in house; host or cells: insect cells (baculovirus Sf21 in Method B)
T3 sequence (Q06187 whole entry): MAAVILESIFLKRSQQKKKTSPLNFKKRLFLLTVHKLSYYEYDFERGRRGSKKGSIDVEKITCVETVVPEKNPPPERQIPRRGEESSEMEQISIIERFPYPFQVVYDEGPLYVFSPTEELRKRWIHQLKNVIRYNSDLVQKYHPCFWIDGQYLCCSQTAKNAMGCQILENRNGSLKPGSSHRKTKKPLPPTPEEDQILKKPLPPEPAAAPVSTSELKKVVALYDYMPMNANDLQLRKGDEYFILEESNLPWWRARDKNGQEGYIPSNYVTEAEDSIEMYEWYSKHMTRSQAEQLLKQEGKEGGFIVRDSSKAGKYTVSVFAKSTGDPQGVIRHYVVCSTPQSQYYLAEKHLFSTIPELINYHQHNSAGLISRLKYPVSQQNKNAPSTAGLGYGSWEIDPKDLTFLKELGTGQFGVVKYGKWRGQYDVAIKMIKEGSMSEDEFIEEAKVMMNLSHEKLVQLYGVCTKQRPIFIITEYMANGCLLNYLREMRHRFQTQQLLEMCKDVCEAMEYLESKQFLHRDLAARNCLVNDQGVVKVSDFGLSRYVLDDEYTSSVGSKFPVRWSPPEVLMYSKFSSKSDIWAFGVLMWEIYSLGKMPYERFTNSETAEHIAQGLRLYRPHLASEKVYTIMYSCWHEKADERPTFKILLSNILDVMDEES

TEC = target: T4, TEC (Homo sapiens, UniProt P42680); assay: Inhibition of a panel of kinases, in vitro HotSpot kinase assay: TEC; conditions: Table 15, C compounds; 1 μM ATP
T4 sequence (P42680 1-631): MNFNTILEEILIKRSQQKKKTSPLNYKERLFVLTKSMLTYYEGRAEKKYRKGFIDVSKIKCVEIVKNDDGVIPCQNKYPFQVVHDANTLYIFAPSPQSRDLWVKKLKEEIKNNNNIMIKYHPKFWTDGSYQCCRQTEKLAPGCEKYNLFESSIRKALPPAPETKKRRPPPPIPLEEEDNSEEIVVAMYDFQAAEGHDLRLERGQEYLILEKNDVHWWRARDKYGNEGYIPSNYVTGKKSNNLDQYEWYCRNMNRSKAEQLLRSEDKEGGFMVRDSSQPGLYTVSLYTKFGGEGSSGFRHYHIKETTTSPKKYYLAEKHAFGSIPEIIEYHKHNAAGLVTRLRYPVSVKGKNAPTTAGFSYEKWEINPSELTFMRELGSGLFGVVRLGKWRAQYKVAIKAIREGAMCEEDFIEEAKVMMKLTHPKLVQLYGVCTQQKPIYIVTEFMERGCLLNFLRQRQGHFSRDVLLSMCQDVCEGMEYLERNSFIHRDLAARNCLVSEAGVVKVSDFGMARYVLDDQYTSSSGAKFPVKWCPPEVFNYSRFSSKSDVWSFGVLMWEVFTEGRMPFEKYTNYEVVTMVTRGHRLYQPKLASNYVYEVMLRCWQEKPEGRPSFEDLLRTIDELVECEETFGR
Protocol: as §1

Compound | IC50 (TXK) [nM] | IC50 (ITK) [nM] | IC50 (EGFR) [nM] | IC50 (BTK-WT) [nM] | IC50 (TEC) [nM]
C=CC(=O)N1CCC[C@@H](Nc2nnc(C(N)=O)c(Nc3ccc(-c4ncco4)cc3)n2)C1 [Example C-51, (R)-3-(1-acryloylpiperidin-3-ylamino)-5-(4-(oxazol-2-yl)phenylamino)-1,2,4-triazine-6-carboxamide] | ≤ 10 | 10 to 100 | ≤ 10 | ≤ 10 | ≤ 10
C=CC(=O)N1CCC[C@@H](Nc2nnc(C(N)=O)c(Nc3cnc4ccccc4c3)n2)C1 [Example C-70, (R)-3-(1-acryloylpiperidin-3-ylamino)-5-(quinolin-3-ylamino)-1,2,4-triazine-6-carboxamide] | ≤ 10 | 10 to 100 |  | ≤ 10 | ≤ 10
C=CC(=O)N1CCC[C@@H](Nc2nnc(C(N)=O)c(Nc3cccc(-c4ncccn4)c3)n2)C1 [Example C-71, (R)-3-(1-acryloylpiperidin-3-ylamino)-5-(3-(pyrimidin-2-yl)phenylamino)-1,2,4-triazine-6-carboxamide] | ≤ 10 | 10 to 100 | 10 to 100 | ≤ 10 | ≤ 10
C=CC(=O)N1CCC[C@@H](Nc2nnc(C(N)=O)c(Nc3ccc(CN(C(=O)OCc4ccccc4)[C@@H](C)C(C)(C)C)cc3)n2)C1 [Example C-72, benzyl 4-(3-((R)-1-acryloylpiperidin-3-ylamino)-6-carbamoyl-1,2,4-triazin-5-ylamino)benzyl((S)-3,3-dimethylbutan-2-yl)carbamate] | 10 to 100 | 10 to 100 |  | ≤ 10 | ≤ 10
C=CC(=O)N1CCC[C@@H](Nc2nnc(C(N)=O)c(Nc3cccc(-n4nccn4)c3)n2)C1 [Example C-75, (R)-5-(3-(2H-1,2,3-triazol-2-yl)phenylamino)-3-(1-acryloylpiperidin-3-ylamino)-1,2,4-triazine-6-carboxamide] | ≤ 10 | 10 to 100 | 10 to 100 | ≤ 10 | ≤ 10
C=CC(=O)N1CCC[C@@H](Nc2nnc(C(N)=O)c(Nc3cccc(-c4ncco4)c3)n2)C1 [Example C-79, (R)-3-(1-acryloylpiperidin-3-ylamino)-5-(3-(oxazol-2-yl)phenylamino)-1,2,4-triazine-6-carboxamide] | ≤ 10 | 10 to 100 |  | ≤ 10 | ≤ 10
C=CC(=O)N1CCC[C@@H](Nc2nnc(C(N)=O)c(Nc3ccc4c(cnn4CC)c3)n2)C1 [Example C-80, (R)-3-(1-acryloylpiperidin-3-ylamino)-5-(1-ethyl-1H-indazol-5-ylamino)-1,2,4-triazine-6-carboxamide] | ≤ 10 | ≤ 10 |  | ≤ 10 | ≤ 10
C=CC(=O)N1CCC[C@@H](Nc2nnc(C(N)=O)c(Nc3ccc4ncccc4c3)n2)C1 [Example C-82, (R)-3-(1-acryloylpiperidin-3-ylamino)-5-(quinolin-6-ylamino)-1,2,4-triazine-6-carboxamide] | ≤ 10 | ≤ 10 |  | ≤ 10 | ≤ 10

Other lines, results leading:

IC50 (TXK) [nM] | IC50 (ITK) [nM] | IC50 (EGFR) [nM] | IC50 (BTK-WT) [nM] | IC50 (TEC) [nM] | Compound
≤ 10 | ≤ 10 | ≤ 10 | ≤ 10 | ≤ 10 | C=CC(=O)N1CCC[C@@H](Nc2nnc(C(N)=O)c(Nc3ccc(C4(C#N)CCCC4)cc3)n2)C1 [Example C-58, (R)-3-(1-acryloylpiperidin-3-ylamino)-5-(4-(1-cyanocyclopentyl)phenylamino)-1,2,4-triazine-6-carboxamide]
≤ 10 | ≤ 10 | ≤ 10 | ≤ 10 | ≤ 10 | C=CC(=O)N1CCC[C@@H](Nc2nnc(C(N)=O)c(Nc3ccc(S(C)(=O)=O)cc3)n2)C1 [Example C-59, (R)-3-(1-acryloylpiperidin-3-ylamino)-5-(4-(methylsulfonyl)phenyl-amino)-1,2,4-triazine-6-carboxamide]
≤ 10 | ≤ 10 | 10 to 100 | ≤ 10 | ≤ 10 | C=CC(=O)N1CCC[C@@H](Nc2nnc(C(N)=O)c(Nc3ccc(N4CCOCC4=O)cc3)n2)C1 [Example C-76, (R)-3-(1-acryloylpiperidin-3-ylamino)-5-(4-(3-oxomorpholino)phenyl-amino)-1,2,4-triazine-6-carboxamide]
≤ 10 | 10 to 100 | ≤ 10 | ≤ 10 | ≤ 10 | C=CC(=O)N1CCC[C@@H](Nc2nnc(C(N)=O)c(Nc3ccc(-c4nccs4)cc3)n2)C1 [Example C-77, (R)-3-(1-acryloylpiperidin-3-ylamino)-5-(4-(thiazol-2-yl)phenylamino)-1,2,4-triazine-6-carboxamide]
≤ 10 | 10 to 100 | ≤ 10 | ≤ 10 | ≤ 10 | C=CC(=O)N1CCC[C@@H](Nc2nnc(C(N)=O)c(Nc3ccc(-c4nn[nH]n4)cc3)n2)C1 [Example C-78, (R)-5-(4-(2H-tetrazol-5-yl)phenylamino)-3-(1-acryloylpiperidin-3-ylamino)-1,2,4-triazine-6-carboxamide]
≤ 10 | 10 to 100 |  | ≤ 10 | ≤ 10 | C=CC(=O)N1CCC[C@@H](Nc2nnc(C(N)=O)c(Nc3ccc(-n4nccn4)cc3)n2)C1 [Example C-81, (R)-5-(4-(2H-1,2,3-triazol-2-yl)phenylamino)-3-(1-acryloylpiperidin-3-ylamino)-1,2,4-triazine-6-carboxamide]
≤ 10 | 10 to 100 |  | ≤ 10 | ≤ 10 | C=CC(=O)N1CCC[C@@H](Nc2nnc(C(N)=O)c(Nc3ccc(-n4cncn4)cc3)n2)C1 [Example C-83, (R)-5-(4-(1H-1,2,4-triazol-1-yl)phenylamino)-3-(1-acryloylpiperidin-3-ylamino)-1,2,4-triazine-6-carboxamide]
